Results published in ChEMBL document CHEMBL1139487, “Discovery of corticotropin releasing factor 2 receptor selective sauvagine analogues for treatment of skeletal muscle atrophy” (J Med Chem, 2005).
Square brackets hold non-standard residues; d marks the D form. Peptide text beside a SMILES is read from it. 1Nal = N[C@@H](Cc1cccc2ccccc12)C(=O)O; pGlu = O=C1CC[C@@H](C(=O)O)N1

Legend:
[1] = biological target: T1, Corticotropin-releasing factor receptor 1 (Mus musculus, UniProt P35347); assay: In vitro effective concentration for mouse corticotropin releasing factor 1 receptor
T1 sequence (P35347 whole entry): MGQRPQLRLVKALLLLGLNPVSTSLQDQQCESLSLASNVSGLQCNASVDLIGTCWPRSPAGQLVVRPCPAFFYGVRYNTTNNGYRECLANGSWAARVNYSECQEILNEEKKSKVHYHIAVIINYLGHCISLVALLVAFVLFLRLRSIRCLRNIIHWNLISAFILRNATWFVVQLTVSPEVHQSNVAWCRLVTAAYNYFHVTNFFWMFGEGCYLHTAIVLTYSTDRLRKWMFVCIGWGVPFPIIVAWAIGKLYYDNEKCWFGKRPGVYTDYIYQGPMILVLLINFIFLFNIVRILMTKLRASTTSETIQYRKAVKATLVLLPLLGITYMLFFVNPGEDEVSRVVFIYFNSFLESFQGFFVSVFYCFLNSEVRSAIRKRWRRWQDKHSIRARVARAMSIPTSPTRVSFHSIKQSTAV

[2] = biological target: Corticotropin-releasing factor receptor 2 (Mus musculus, UniProt Q60748); assay: In vitro effective concentration for mouse corticotropin releasing factor 2 receptor
Corticotropin-releasing factor receptor 2, sequence (Q60748 whole entry): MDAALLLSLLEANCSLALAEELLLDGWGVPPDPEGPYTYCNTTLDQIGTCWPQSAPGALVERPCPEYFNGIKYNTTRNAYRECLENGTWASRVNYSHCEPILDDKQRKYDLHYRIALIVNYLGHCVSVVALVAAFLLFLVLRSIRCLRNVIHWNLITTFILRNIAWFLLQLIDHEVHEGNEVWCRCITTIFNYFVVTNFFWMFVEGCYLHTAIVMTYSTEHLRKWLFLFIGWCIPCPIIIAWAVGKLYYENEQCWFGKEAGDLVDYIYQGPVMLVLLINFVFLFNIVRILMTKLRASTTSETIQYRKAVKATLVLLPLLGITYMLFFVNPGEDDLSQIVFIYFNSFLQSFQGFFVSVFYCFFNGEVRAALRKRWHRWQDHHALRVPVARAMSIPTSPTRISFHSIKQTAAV

Compound	EC50 [1] [nM]	EC50 [2] [nM]
CC[C@H](C)[C@H](NC(=O)[C@@H](NC(=O)[C@H](CC(=O)O)NC(=O)[C@H](CC(C)C)NC(=O)[C@H](CC(C)C)NC(=O)[C@H](CC(C)C)NC(=O)[C@H](CCCNC(=N)N)NC(=O)[C@H](CC(N)=O)NC(=O)[C@H](CC(N)=O)NC(=O)[C@H](C)NC(=O)[C@H](C)NC(=O)[C@H](CCC(N)=O)NC(=O)[C@H](CCC(N)=O)NC(=O)[C@H](CCCCN)NC(=O)[C@H](CCC(=O)O)NC(=O)[C@H](CCCCN)NC(=O)[C@H](CCC(=O)O)NC(=O)[C@H](CCC(N)=O)NC(=O)[C@H](CCCCN)NC(=O)[C@H](CCC(=O)O)NC(=O)[C@@H](NC(=O)[C@H](CCC(=O)O)NC(=O)[C@@H](NC(=O)[C@H](CCSC)NC(=O)[C@H](CCCCN)NC(=O)[C@H](CCCNC(=N)N)NC(=O)[C@H](CC(C)C)NC(=O)[C@H](CC(C)C)NC(=O)[C@H](Cc1cccc2ccccc12)NC(=O)[C@H](CCC(N)=O)NC(=O)[C@@H]1CCCN1C(=O)[C@H](CC(C)C)NC(=O)[C@H](CC(=O)O)NC(=O)[C@@H](NC(=O)[C@H](CO)NC(=O)[C@@H](NC(=O)[C@@H]1CCCN1C(=O)[C@@H]1CCCN1C(=O)CNC(=O)[C@@H]1CCC(=O)N1)[C@@H](C)CC)[C@@H](C)CC)[C@@H](C)CC)[C@@H](C)CC)[C@@H](C)O)C(=O)O ([pGlu]GPPISIDLPQ[1Nal]LLRKMIEIEKQEKEKQQAANNRLLLDTI-OH)	367	14.1
CC[C@H](C)[C@H](NC(=O)[C@@H](NC(=O)[C@H](CC(=O)O)NC(=O)[C@H](CC(C)C)NC(=O)[C@H](CC(C)C)NC(=O)[C@H](CC(C)C)NC(=O)[C@H](CCCNC(=N)N)NC(=O)[C@H](CC(N)=O)NC(=O)[C@H](CC(N)=O)NC(=O)[C@H](C)NC(=O)[C@H](C)NC(=O)[C@H](CCC(N)=O)NC(=O)[C@H](CCC(N)=O)NC(=O)[C@H](CCCCN)NC(=O)[C@H](CCC(=O)O)NC(=O)[C@H](CCCCN)NC(=O)[C@H](CCC(=O)O)NC(=O)[C@H](CCC(N)=O)NC(=O)[C@H](CCCCN)NC(=O)[C@H](CCC(=O)O)NC(=O)[C@@H](NC(=O)[C@H](CCC(=O)O)NC(=O)[C@@H](NC(=O)[C@H](CCSC)NC(=O)[C@H](CCCCN)NC(=O)[C@H](CCCNC(=N)N)NC(=O)[C@H](CC(C)C)NC(=O)[C@H](CC(C)C)NC(=O)[C@H](Cc1ccc(O)cc1)NC(=O)[C@H](CCC(N)=O)NC(=O)[C@@H]1CCCN1C(=O)[C@H](CC(C)C)NC(=O)[C@H](CC(=O)O)NC(=O)[C@@H](NC(=O)[C@H](CO)NC(=O)[C@@H](NC(=O)[C@@H]1CCCN1C(=O)[C@@H]1CCCN1C(=O)CNC(=O)[C@@H]1CCC(=O)N1)[C@@H](C)CC)[C@@H](C)CC)[C@@H](C)CC)[C@@H](C)CC)[C@@H](C)O)C(=O)O	325	10.7
CC[C@H](C)[C@H](NC(=O)[C@@H](NC(=O)[C@H](CC(=O)O)NC(=O)[C@H](CC(C)C)NC(=O)[C@H](CC(C)C)NC(=O)[C@H](CC(C)C)NC(=O)[C@H](CCCNC(=N)N)NC(=O)[C@H](CC(N)=O)NC(=O)[C@H](CC(N)=O)NC(=O)[C@H](C)NC(=O)[C@H](C)NC(=O)[C@H](CCC(N)=O)NC(=O)[C@H](CCC(N)=O)NC(=O)[C@H](CCCCN)NC(=O)[C@H](CCC(=O)O)NC(=O)[C@H](CCCCN)NC(=O)[C@H](CCC(=O)O)NC(=O)[C@H](CCC(N)=O)NC(=O)[C@H](CCCCN)NC(=O)[C@H](CCC(=O)O)NC(=O)[C@@H](NC(=O)[C@H](CCC(=O)O)NC(=O)[C@@H](NC(=O)[C@H](CCSC)NC(=O)[C@H](CCCCN)NC(=O)[C@H](CCCNC(=N)N)NC(=O)[C@H](CC(C)C)NC(=O)[C@H](CC(C)C)NC(=O)[C@H](CC(C)C)NC(=O)[C@H](Cc1ccc(O)cc1)NC(=O)[C@@H]1CCCN1C(=O)[C@H](CC(C)C)NC(=O)[C@H](CC(=O)O)NC(=O)[C@@H](NC(=O)[C@H](CO)NC(=O)[C@@H](NC(=O)[C@@H]1CCCN1C(=O)[C@@H]1CCCN1C(=O)CNC(=O)[C@@H]1CCC(=O)N1)[C@@H](C)CC)[C@@H](C)CC)[C@@H](C)CC)[C@@H](C)CC)[C@@H](C)O)C(=O)O	76.2	5.2

Continued, values first:

EC50 [1] [nM]	EC50 [2] [nM]	Compound
> 1000	22.3	CC[C@H](C)[C@H](NC(=O)[C@@H](NC(=O)[C@H](CC(=O)O)NC(=O)[C@H](CC(C)C)NC(=O)[C@H](CC(C)C)NC(=O)[C@H](CC(C)C)NC(=O)[C@H](CCCNC(=N)N)NC(=O)[C@H](CC(N)=O)NC(=O)[C@H](CC(N)=O)NC(=O)[C@H](C)NC(=O)[C@H](C)NC(=O)[C@H](CCC(N)=O)NC(=O)[C@H](CCC(N)=O)NC(=O)[C@H](CCCCN)NC(=O)[C@H](CCC(=O)O)NC(=O)[C@H](CCCCN)NC(=O)[C@H](CCC(=O)O)NC(=O)[C@H](CCC(N)=O)NC(=O)[C@H](CCCCN)NC(=O)[C@H](CCC(=O)O)NC(=O)[C@@H](NC(=O)[C@H](CCC(=O)O)NC(=O)[C@@H](NC(=O)[C@H](CCSC)NC(=O)[C@H](CCCCN)NC(=O)[C@H](CCCNC(=N)N)NC(=O)[C@H](CC(C)C)NC(=O)[C@H](CC(C)C)NC(=O)[C@H](Cc1ccc(O)cc1)NC(=O)[C@@H](NC(=O)[C@@H]1CCCN1C(=O)[C@H](CC(C)C)NC(=O)[C@H](CC(=O)O)NC(=O)[C@@H](NC(=O)[C@H](CO)NC(=O)[C@@H](NC(=O)[C@@H]1CCCN1C(=O)[C@@H]1CCCN1C(=O)CNC(=O)[C@@H]1CCC(=O)N1)[C@@H](C)CC)[C@@H](C)CC)[C@@H](C)CC)[C@@H](C)CC)[C@@H](C)CC)[C@@H](C)O)C(=O)O
67.9	4.3	CC[C@H](C)[C@H](NC(=O)[C@@H](NC(=O)[C@H](CC(=O)O)NC(=O)[C@H](CC(C)C)NC(=O)[C@H](CC(C)C)NC(=O)[C@H](CC(C)C)NC(=O)[C@H](CCCNC(=N)N)NC(=O)[C@H](CC(N)=O)NC(=O)[C@H](CC(N)=O)NC(=O)[C@H](C)NC(=O)[C@H](C)NC(=O)[C@H](CCC(N)=O)NC(=O)[C@H](CCC(N)=O)NC(=O)[C@H](CCCCN)NC(=O)[C@H](CCC(=O)O)NC(=O)[C@H](CCCCN)NC(=O)[C@H](CCC(=O)O)NC(=O)[C@H](CCC(N)=O)NC(=O)[C@H](CCCCN)NC(=O)[C@H](CCC(=O)O)NC(=O)[C@@H](NC(=O)[C@H](CCC(=O)O)NC(=O)[C@@H](NC(=O)[C@H](CCSC)NC(=O)[C@H](CCCCN)NC(=O)[C@H](CCCNC(=N)N)NC(=O)[C@H](CC(C)C)NC(=O)[C@H](CC(C)C)NC(=O)[C@H](Cc1ccc(O)cc1)NC(=O)[C@H](CC(C)C)NC(=O)[C@@H]1CCCN1C(=O)[C@H](CC(C)C)NC(=O)[C@H](CC(=O)O)NC(=O)[C@@H](NC(=O)[C@H](CO)NC(=O)[C@@H](NC(=O)[C@@H]1CCCN1C(=O)[C@@H]1CCCN1C(=O)CNC(=O)[C@@H]1CCC(=O)N1)[C@@H](C)CC)[C@@H](C)CC)[C@@H](C)CC)[C@@H](C)CC)[C@@H](C)O)C(=O)O ([pGlu]GPPISIDLPLYLLRKMIEIEKQEKEKQQAANNRLLLDTI-OH)
